Assay [1] addresses BRD4 (BD1+BD2) bromodomain (Homo sapiens (Human), UniProt O60885). Kind of assay: BRD4 binding inhibition (AlphaScreen, GST-BRD4 vs tetraacetylated histone H4 peptide). The method, boiled down: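 AlphaScreen read after 30 min dark incubation at room temperature with glutathione acceptor/streptavidin donor beads (10 μg/ml each). The beads were added to compound plus 100 nM biotin-H4 (K5,8,12,16-acetyl) peptide and 100 nM GST-BRD4 BD1+BD2 in pH 7.4 HEPES/Tween/BSA/DTT buffer.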
A general note: Alpha assays give light when donor and acceptor beads are brought close together.

Assay [2] deals with acute myelogenous leukemia cells (MV-4-11 cells). Put plainly: Cytotoxicity to acute myelogenous leukemia cells (MV-4-11 cells), CCK-8. Conditions: Homo sapiens, MV4-11, 72 h.
Setting [3] is: GST-BRD4 (BD1+BD2) / biotinylated acetyl-histone H4 (Lys5,8,12,16) peptide, read-out: IC50, BRD4 binding inhibition.
Where [4] appears, read: GST-BRD4 (BD1+BD2) vs biotinylated acetyl-histone H4 peptide, AlphaScreen, read-out: BRD4 IC50.
Where [5] appears, read: read-out: MV-4-11 Cytotoxicity IC50.
Setting [6] is: read-out: IC50, cytotoxicity against acute myelogenous leukemia cells.

Each structure is given as a SMILES string. Like-named read-outs stand apart in the source and are kept apart here.

What is called IC50 is the concentration needed to halve the response being measured. Turning to `Cc1nnc2c(NCCCCN)nc3cc4c(cc3n12)OCCO4` [Example 179, N^1-(1-methyl-8,9-dihydro-7,10-dioxa-2,3,5,11b-tetraaza-cyclopenta[a]anthracene-4-yl)-butane-1,4-diamine ditrifluoroacetic acid], the figures for the IC50 in assay [1] (setting [3]), in assay [1] (setting [4]) and in assay [2] (setting [5]) were not above 50 nM, 35 nM and 640 nM, respectively.

In the case of `Cc1nnc2c(NCCCCNC(=O)C(C)(C)C)nc3cc4c(cc3n12)OCCO4` [Example 180, 2,2-dimethyl-N-[4-(1-methyl-8,9-dihydro-7,10-dioxa-2,3,5,11b-tetraaza-cyclopenta[a]anthracene-4-ylamino)-butyl]-propionamide], the half-maximal inhibitory concentration (IC50) in assay [1] (setting [3]) was not above 50 nM; in assay [1] (setting [4]) it was 17 nM; in assay [2] (setting [6]) it was not above 200 nM; in assay [2] (setting [5]) it was 190 nM.

Consider `Cc1nnc2c(NCCCCNC(=O)[C@@H](O)C(C)C)nc3cc4c(cc3n12)OCCO4` [Example 183, 2-(S)-hydroxy-3-methyl-N-[4-(1-methyl-8,9-dihydro-7,10-dioxa-2,3,5,11b-tetraaza-cyclopenta[a]anthracene-4-ylamino)-butyl]-butyramide], for which the half-maximal inhibitory concentration (IC50) in assay [1] (setting [3]) is not above 50 nM; in assay [1] (setting [4]), 11 nM; in assay [2] (setting [5]), 250 nM.

Consider `Cc1nnc2c(NCCCCNC(=O)Cc3cccs3)nc3cc4c(cc3n12)OCCO4` [Example 185, N-[4-(1-methyl-8,9-dihydro-7,10-dioxa-2,3,5,11b-tetraaza-cyclopenta[a]anthracene-4-ylamino)-butyl]-2-thiophene-2-yl-acetamide], for which the concentration for half-maximal inhibition (IC50) in assay [1] (setting [3]) is not above 50 nM; in assay [1] (setting [4]), 19 nM; in assay [2] (setting [6]), not above 200 nM; in assay [2] (setting [5]), 20 nM.

Regarding `Cc1nnc2c(NCCCCNC(=O)c3ccccc3Cl)nc3cc4c(cc3n12)OCCO4` [Example 187, 2-chloro-N-[4-(1-methyl-8,9-dihydro-7,10-dioxa-2,3,5,11b-tetraaza-cyclopenta[a]anthracene-4-ylamino)-butyl]-benzamide], the IC50 in assay [1] (setting [3]) was not above 50 nM; in assay [1] (setting [4]) it was 24 nM; in assay [2] (setting [6]), not above 200 nM; in assay [2] (setting [5]), 110 nM.

As to `Cc1nnc2c(NCCCCNC(=O)OC(C)C)nc3cc4c(cc3n12)OCCO4` [Example 188, [4-(1-methyl-8,9-dihydro-7,10-dioxa-2,3,5,11b-tetraaza-cyclopenta[a]anthracene-4-ylamino)-butyl]-carbamic acid isopropylester], the IC50 in assay [1] (setting [3]) is not above 50 nM; in assay [1] (setting [4]), 25 nM; in assay [2] (setting [6]), not above 200 nM; in assay [2] (setting [5]), 170 nM.

For `Cc1nnc2c(NCCCCNC(=O)OCC(C)C)nc3cc4c(cc3n12)OCCO4` [Example 189, [4-(1-methyl-8,9-dihydro-7,10-dioxa-2,3,5,11b-tetraaza-cyclopenta[a]anthracene-4-ylamino)-butyl]-carbamic acid isobutylester], the 50% inhibitory concentration (IC50) in assay [1] (setting [3]) was not above 50 nM; in assay [1] (setting [4]), 17 nM; in assay [2] (setting [6]), not above 200 nM; in assay [2] (setting [5]) it was 110 nM.

Regarding `CCC(C)CC(=O)NCCCCNc1nc2c(OC)c(OC)c(OC)cc2n2c(C)nnc12` (stereo not shown) [Example 196, 3-methyl-pentanoic acid-[4-(6,7,8-trimethoxy-1-methyl-[1,2,4]triazolo[4,3-a]quinoxaline-4-ylamino)-butyl]-amide], the IC50 in assay [1] (setting [3]) is not above 50 nM; in assay [1] (setting [4]), 32 nM; in assay [2] (setting [5]) it was 550 nM.

In the case of `COC(=O)c1ccc2c(c1)nc(NCCCCNC(=O)CC(C)C)c1nnc(C)n12` [Example 199, 1-methyl-4-[4-(3-methyl-butyrylamino)-butylamino]-[1,2,4]triazolo[4,3-a]quinoxaline-7-carboxylic acid methylester], the IC50 in assay [1] (setting [4]) was 58 nM; in assay [2] (setting [6]), not above 200 nM; in assay [2] (setting [5]) it was 49 nM.

In the case of `Cc1nnc2c(NCCCCNC(=O)CC(C)C)nc3cc(C(=O)Nc4ccccc4N)ccc3n12` [Example 215, 1-methyl-4-[4-(3-methyl-butyrylamino)-butylamino]-[1,2,4]triazolo[4,3-a]quinoxaline-7-carboxylic acid-(2-amino-phenyl)-amide], the IC50 in assay [1] (setting [3]) was not above 50 nM; in assay [1] (setting [4]), 22 nM; in assay [2] (setting [5]) it was 276 nM.

Consider `Cc1ccc(NC(=O)c2ccc3c(c2)nc(NCCCCNC(=O)CC(C)C)c2nnc(C)n23)c(N)c1` [Example 216, 1-methyl-4-[4-(3-methyl-butyrylamino)-butylamino]-[1,2,4]triazolo[4,3-a]quinoxaline-7-carboxylic acid-(2-amino-4-methyl-phenyl)-amide], for which the IC50 in assay [1] (setting [3]) is not above 50 nM; in assay [1] (setting [4]) it was 31 nM; in assay [2] (setting [5]), 240 nM.

`COc1cc(N)c(NC(=O)c2ccc3c(c2)nc(NCCCCNC(=O)CC(C)C)c2nnc(C)n23)cc1OC` [Example 217, 1-methyl-4-[4-(3-methyl-butyrylamino)-butylamino]-[1,2,4]triazolo[4,3-a]quinoxaline-7-carboxylic acid-(2-amino-4,5-dimethoxy-phenyl)-amide]: the IC50 was not above 50 nM in assay [1] (setting [3]), 16 nM in assay [1] (setting [4]) and 256 nM in assay [2] (setting [5]).

Take `Cc1nnc2c(NCCCCNC(=O)OC(C)(C)C)nc3cc(-c4nc5ccccc5[nH]4)ccc3n12` [Example 218, {4-[7-(1H-benzoimidazole-2-yl)-1-methyl-[1,2,4]triazolo[4,3-a]quinoxaline-4-ylamino]-butyl}-carbamic acid-tert-butylester]: the IC50 in assay [1] (setting [3]) was not above 50 nM; in assay [1] (setting [4]) it was 25 nM; in assay [2] (setting [5]), 320 nM.

`Cc1ccc2[nH]c(-c3ccc4c(c3)nc(NCCCCNC(=O)OC(C)(C)C)c3nnc(C)n34)nc2c1` [Example 219, {4-[1-methyl-7-(5-methyl-1H-benzoimidazole-2-yl)-[1,2,4]triazolo[4,3-a]quinoxaline-4-ylamino]-butyl}-carbamic acid-tert-butylester]: the IC50 is 68 nM in assay [1] (setting [4]), not above 200 nM in assay [2] (setting [6]) and 79 nM in assay [2] (setting [5]).

With `Cc1nnc2c(NCCCCNC(=O)OC(C)(C)C)nc3cc(-c4nc5ccccc5n4C)ccc3n12` [Example 220, {4-[1-methyl-7-(1-methyl-1H-benzoimidazole-2-yl)-[1,2,4]triazolo[4,3-a]quinoxaline-4-ylamino]-butyl}-carbamic acid-tert-butylester], the IC50 was not above 10 nM in assay [1] (setting [3]) and 350 nM in assay [2] (setting [5]).

Turning to `Cc1nnc2c(NCCCCNC(=O)CC(C)C)nc3cc(-c4nc5ccccc5n4C)ccc3n12` [Example 222, 3-methyl-N-{4-[1-methyl-7-(1-methyl-1H-benzoimidazole-2-yl)-[1,2,4]triazolo[4,3-a]quinoxaline-4-ylamino]-butyl}-butyramide], the IC50 in assay [1] (setting [3]) is not above 10 nM; in assay [1] (setting [4]), 1 nM; in assay [2] (setting [6]) it was not above 200 nM; in assay [2] (setting [5]), 53 nM.

For the molecule `Cc1ccc2[nH]c(-c3ccc4c(c3)nc(NCCCCNC(=O)CC(C)C)c3nnc(C)n34)nc2c1` [Example 223, 3-methyl-N-{4-[1-methyl-7-(5-methyl-1H-benzoimidazole-2-yl)-[1,2,4]triazolo[4,3-a]quinoxaline-4-ylamino]-butyl}-butyramide], the IC50 in assay [1] (setting [3]) is not above 50 nM; in assay [1] (setting [4]), 17 nM; in assay [2] (setting [6]), not above 200 nM; in assay [2] (setting [5]), 14 nM.

Take `Cc1nnc2c(NCCCCNC(=O)CC(C)C)nc3cc(-c4nc5ccccc5[nH]4)ccc3n12` [Example 224, N-{4-[7-(1H-benzoimidazole-2-yl)-1-methyl-[1,2,4]triazolo[4,3-a]quinoxaline-4-ylamino]-butyl}-3-methyl-butyramide]: the half-maximal inhibitory concentration (IC50) in assay [1] (setting [3]) was not above 50 nM; in assay [1] (setting [4]) it was 13 nM; in assay [2] (setting [6]), not above 200 nM; in assay [2] (setting [5]), 3 nM.

`Cc1nnc2c(NCCCCNC(=O)[C@H](O)C(C)C)nc3cc(-c4nc5ccccc5[nH]4)ccc3n12` [Example 226, N-{4-[7-(1H-benzoimidazole-2-yl)-1-methyl-[1,2,4]triazolo[4,3-a]quinoxaline-4-ylamino]-butyl}-2-(R)-hydroxy-3-methyl-butyramide]: the results for the 50% inhibitory concentration (IC50) in assay [1] (setting [3]), in assay [1] (setting [4]) and in assay [2] (setting [5]) were not above 10 nM, 4 nM and 290 nM, respectively.

Regarding `COc1cc2nc(-c3ccc4c(c3)nc(NCCCCNC(=O)CC(C)C)c3nnc(C)n34)[nH]c2cc1OC` [Example 227, N-{4-[7-(5,6-dimethoxy-1H-benzoimidazole-2-yl)-1-methyl-[1,2,4]triazolo[4,3-a]quinoxaline-4-ylamino]-butyl}-3-methyl-butyramide], the IC50 was not above 10 nM in assay [1] (setting [3]), 1 nM in assay [1] (setting [4]), not above 200 nM in assay [2] (setting [6]) and 39 nM in assay [2] (setting [5]).

`CCCOC(=O)NCCCCNc1nc2cc(-c3nc4ccccc4n3C)ccc2n2c(C)nnc12` [Example 228, {4-[1-methyl-7-(1-methyl-1H-benzoimidazole-2-yl)-[1,2,4]triazolo[4,3-a]quinoxaline-4-ylamino]-butyl}-carbamic acid propylester]: the IC50 was not above 10 nM in assay [1] (setting [3]), 7 nM in assay [1] (setting [4]), not above 200 nM in assay [2] (setting [6]) and 140 nM in assay [2] (setting [5]).

Take `Cc1nnc2c(NCCCCNC(=O)OC3CCCC3)nc3cc(-c4nc5ccccc5n4C)ccc3n12` [Example 229, {4-[1-methyl-7-(1-methyl-1H-benzoimidazole-2-yl)-[1,2,4]triazolo[4,3-a]quinoxaline-4-ylamino]-butyl}-carbamic acid cyclopentylester]: the IC50 in assay [1] (setting [3]) is not above 10 nM; in assay [1] (setting [4]) it was 3 nM; in assay [2] (setting [6]), not above 200 nM; in assay [2] (setting [5]), 150 nM.
